For 21 molecules, IC50 results are on record in patent US8148391B2 (Cephalon, Inc., priority 2006, dated 2012).

Structures are written as SMILES. Like-named read-outs stand apart in the source and are kept apart here.

Assay [1] has as its target T1, baculovirus-expressed ALK (Homo sapiens, UniProt Q9UM73).
T1 construct: host or cells: baculovirus expression system
Briefly: ALK Kinase Assay (ELISA-type, time-resolved fluorescence). Type of assay: biochemical. The note with it: 1 μM ATP (Km level); read-out: ALK Activity (ALK Kinase Inhibition, IC50). In a few lines:
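Wells were coated with phospholipase C-γ at 10 μg/mL in Tris-buffered saline. Adding 30 ng/ml enzyme started the reaction, which ran at 37° C for 15 minutes before Eu-N1 PT66 antibody detection. Percent inhibition versus log10 concentration gave IC50 by variable-slope fit.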

Assay [2] addresses T2, c-Met (cytoplasmic domain) (Homo sapiens, UniProt P08581).
T2 construct: 10 ng/mL c-Met (cytoplasmic domain, Invitrogen Corporation #PV3143); purchased Invitrogen Corporation PV3143
Briefly: c-Met Kinase Assay (same methods as for ALK, with modifications). Type of assay: biochemical. The note with it: 1 μM ATP (Km level). In short, it runs like this:
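Steps: coat wells with PLC-γ (10 μg/mL, Tris-buffered saline); add 10 ng/mL c-Met cytoplasmic domain to initiate; incubate 15 min, 37° C; detect phosphoproduct via Eu-N1 PT66 antibody.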

Setting [3] is: read-out: cMet Activity (c-Met Kinase Inhibition, IC50).
Setting [4] is: cMet Activity (c-Met Kinase Inhibition, IC50).

T2 sequence (P08581 956-1390 limits assumed): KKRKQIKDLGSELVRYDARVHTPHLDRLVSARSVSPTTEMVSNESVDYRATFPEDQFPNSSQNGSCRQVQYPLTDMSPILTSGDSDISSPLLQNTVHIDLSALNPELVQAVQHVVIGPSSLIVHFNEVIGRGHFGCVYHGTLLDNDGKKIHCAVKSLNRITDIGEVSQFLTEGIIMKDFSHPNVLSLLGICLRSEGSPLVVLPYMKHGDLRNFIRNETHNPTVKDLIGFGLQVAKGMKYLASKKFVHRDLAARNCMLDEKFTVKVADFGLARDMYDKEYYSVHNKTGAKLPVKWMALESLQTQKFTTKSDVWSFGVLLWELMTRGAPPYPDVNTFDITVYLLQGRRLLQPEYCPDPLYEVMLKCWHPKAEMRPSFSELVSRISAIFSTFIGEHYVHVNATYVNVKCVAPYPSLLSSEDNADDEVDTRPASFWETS
T1 sequence (Q9UM73 19-1620): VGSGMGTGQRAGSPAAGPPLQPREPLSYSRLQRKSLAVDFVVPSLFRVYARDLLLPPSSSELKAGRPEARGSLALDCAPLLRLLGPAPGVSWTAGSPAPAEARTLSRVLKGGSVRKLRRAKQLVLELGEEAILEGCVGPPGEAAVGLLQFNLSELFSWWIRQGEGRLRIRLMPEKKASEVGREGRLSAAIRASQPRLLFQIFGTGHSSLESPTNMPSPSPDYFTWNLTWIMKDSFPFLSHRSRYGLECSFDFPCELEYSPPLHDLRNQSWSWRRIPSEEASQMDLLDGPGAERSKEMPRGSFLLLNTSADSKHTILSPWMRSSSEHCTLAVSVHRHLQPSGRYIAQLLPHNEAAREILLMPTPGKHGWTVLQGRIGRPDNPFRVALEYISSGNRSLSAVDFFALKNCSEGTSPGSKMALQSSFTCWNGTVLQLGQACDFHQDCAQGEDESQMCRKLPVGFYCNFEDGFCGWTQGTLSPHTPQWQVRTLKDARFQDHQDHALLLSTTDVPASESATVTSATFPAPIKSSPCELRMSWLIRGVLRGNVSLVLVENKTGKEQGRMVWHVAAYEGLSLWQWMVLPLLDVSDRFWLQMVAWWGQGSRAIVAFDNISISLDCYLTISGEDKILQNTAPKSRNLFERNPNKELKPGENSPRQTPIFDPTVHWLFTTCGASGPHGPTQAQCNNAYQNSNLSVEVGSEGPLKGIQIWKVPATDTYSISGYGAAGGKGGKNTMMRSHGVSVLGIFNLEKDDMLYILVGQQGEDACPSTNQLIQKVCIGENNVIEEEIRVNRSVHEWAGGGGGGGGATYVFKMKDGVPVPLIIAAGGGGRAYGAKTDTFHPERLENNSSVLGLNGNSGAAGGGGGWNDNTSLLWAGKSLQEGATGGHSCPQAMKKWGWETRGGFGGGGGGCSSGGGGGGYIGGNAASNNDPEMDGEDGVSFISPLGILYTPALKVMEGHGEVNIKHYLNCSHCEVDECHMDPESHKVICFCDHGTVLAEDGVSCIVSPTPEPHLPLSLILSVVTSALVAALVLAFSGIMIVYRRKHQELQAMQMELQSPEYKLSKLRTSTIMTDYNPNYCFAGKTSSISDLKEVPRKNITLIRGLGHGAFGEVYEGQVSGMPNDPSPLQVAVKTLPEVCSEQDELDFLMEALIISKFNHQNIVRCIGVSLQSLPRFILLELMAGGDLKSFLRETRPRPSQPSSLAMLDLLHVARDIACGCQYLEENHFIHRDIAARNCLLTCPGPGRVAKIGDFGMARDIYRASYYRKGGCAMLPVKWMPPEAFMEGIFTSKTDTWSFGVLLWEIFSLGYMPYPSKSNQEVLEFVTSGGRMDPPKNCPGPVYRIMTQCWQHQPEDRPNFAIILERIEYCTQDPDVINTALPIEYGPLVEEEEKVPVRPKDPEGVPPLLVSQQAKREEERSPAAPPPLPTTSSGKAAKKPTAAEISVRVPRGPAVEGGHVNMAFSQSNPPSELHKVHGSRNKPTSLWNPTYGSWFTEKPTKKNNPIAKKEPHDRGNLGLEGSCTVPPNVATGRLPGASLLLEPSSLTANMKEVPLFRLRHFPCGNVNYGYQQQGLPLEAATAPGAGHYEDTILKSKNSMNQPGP

On to `Cn1ccnc1-c1ccccc1Nc1nc(Nc2cccc3c2OCCCC3(C)C)ncc1Cl` [Example 879, 5-Chloro-N*2*-(5,5-dimethyl-2,3,4,5-tetrahydro-benzo[b]oxepin-9-yl)-N*4*-[2-(1-methyl-1H-imidazol-2-yl)-phenyl]-pyrimidine-2,4-diamine], for which the IC50 is 100 to 1000 nM in assay [1] and > 10000 nM in assay [2] (setting [3]).

Regarding `CC1(C)CCCOc2c(Nc3ncc(Cl)c(Nc4ccccc4OCC#N)n3)cccc21` [Example 880, {2-[5-Chloro-2-(5,5-dimethyl-2,3,4,5-tetrahydro-benzo[b]oxepin-9-ylamino)-pyrimidin-4-ylamino]-phenoxy}-acetonitrile], the IC50 in assay [1] was 1000 to 10000 nM; in assay [2] (setting [3]), > 10000 nM.

With `COc1c(Nc2ncc(Cl)c(N[C@H]3[C@@H](C(N)=O)[C@@H]4C=C[C@H]3C4)n2)ccc2c1CC[C@H](N1CCOCC1)CC2` [Example 881, (1S,2S,3R,4R)-3-[5-Chloro-2-((R)-1-methoxy-7-morpholin-4-yl-6,7,8,9-tetrahydro-5H-benzocyclohepten-2-ylamino)-pyrimidin-4-ylamino]-bicyclo[2.2.1]hept-5-ene-2-carboxylic acid amide], the IC50 was < 100 nM in assay [1] and > 10000 nM in assay [2] (setting [4]).

For the molecule `COc1c(Nc2ncc(Cl)c(N[C@H]3[C@@H](C(N)=O)[C@@H]4C=C[C@H]3C4)n2)ccc2c1CC[C@@H](N1CCOCC1)CC2` [Example 882, (1S,2S,3R,4R)-3-[5-Chloro-2-((S)-1-methoxy-7-morpholin-4-yl-6,7,8,9-tetrahydro-5H-benzocyclohepten-2-ylamino)-pyrimidin-4-ylamino]-bicyclo[2.2.1]hept-5-ene-2-carboxylic acid amide], the half-inhibitory concentration (IC50) in assay [1] is < 100 nM; in assay [2] (setting [4]) it was > 10000 nM.

As to `COc1c(Nc2ncc(Cl)c(Nc3ccccc3S(=O)(=O)C(C)C)n2)ccc2c1CCC(N1CCOCC1)CC2` (stereo not drawn) [Example 883, 5-Chloro-N*2*-(1-methoxy-7-morpholin-4-yl-6,7,8,9-tetrahydro-5H-benzocyclohepten-2-yl)-N*4*-[2-(propane-2-sulfonyl)-phenyl]-pyrimidine-2,4-diamine], the IC50 in assay [1] is < 100 nM; in assay [2] (setting [3]), 1000 to 10000 nM.

Turning to `CC1(C)CCCOc2c(Nc3ncc(Cl)c(Nc4ccccc4-n4cccn4)n3)cccc21` [Example 885, 5-Chloro-N*2*-(5,5-dimethyl-2,3,4,5-tetrahydro-benzo[b]oxepin-9-yl)-N*4*-(2-pyrazol-1-yl-phenyl)-pyrimidine-2,4-diamine], the IC50 in assay [1] is 100 to 1000 nM; in assay [2] (setting [3]), > 10000 nM.

As for `CN1CCN(C2CCN(C3CCc4ccc(Nc5ncc(Cl)c(N[C@@H]6CCCC[C@H]6NS(C)(=O)=O)n5)cc4CC3)CC2)CC1` (stereo partly drawn) [Example 886, N-[(1R,2R)-2-(5-Chloro-2-{7-[4-(4-methyl-piperazin-1-yl)-piperidin-1-yl]-6,7,8,9-tetrahydro-5H-benzocyclohepten-2-ylamino}-pyrimidin-4-ylamino)-cyclohexyl]-methanesulfonamide], the IC50 was < 100 nM in assay [1] and 1000 to 10000 nM in assay [2] (setting [3]).

In the case of `CN1CCN(C2CCN(C3CCc4ccc(Nc5ncc(Cl)c(N[C@H]6[C@@H](C(N)=O)[C@@H]7C=C[C@H]6C7)n5)cc4CC3)CC2)CC1` (stereo partly drawn) [Example 887, (1S,2S,3R,4R)-3-(5-Chloro-2-{7-[4-(4-methyl-piperazin-1-yl)-piperidin-1-yl]-6,7,8,9-tetrahydro-5H-benzocyclohepten-2-ylamino}-pyrimidin-4-ylamino)-bicyclo[2.2.1]hept-5-ene-2-carboxylic acid amide], the IC50 is < 100 nM in assay [1] and 100 to 1000 nM in assay [2] (setting [3]).

`CN1CCN(C2CCc3ccc(Nc4ncc(Cl)c(N[C@@H]5CCCC[C@H]5NS(C)(=O)=O)n4)cc3CC2)CC1` (stereo partly drawn) [Example 888, N-((1R,2R)-2-{5-Chloro-2-[7-(4-methyl-piperazin-1-yl)-6,7,8,9-tetrahydro-5H-benzocyclohepten-2-ylamino]-pyrimidin-4-ylamino}-cyclohexyl)-methanesulfonamide]: the IC50 was < 100 nM in assay [1] and 1000 to 10000 nM in assay [2] (setting [3]).

On to `COc1c(Nc2ncc(Cl)c(Nc3ccccc3S(=O)(=O)N(C)C)n2)ccc2c1CCC(N1CCOCC1)CC2` (stereo not drawn) [Example 889, 2-[5-Chloro-2-(1-methoxy-7-morpholin-4-yl-6,7,8,9-tetrahydro-5H-benzocyclohepten-2-ylamino)-pyrimidin-4-ylamino]-N,N-dimethyl-benzenesulfonamide], for which the IC50 in assay [1] is < 100 nM; in assay [2] (setting [3]), 1000 to 10000 nM.

Consider `CN1CCN(C2CCc3ccc(Nc4ncc(Cl)c(Nc5ccccc5S(=O)(=O)N(C)C)n4)cc3CC2)CC1` (stereo not drawn) [Example 890, 2-{5-Chloro-2-[7-(4-methyl-piperazin-1-yl)-6,7,8,9-tetrahydro-5H-benzocyclohepten-2-ylamino]-pyrimidin-4-ylamino}-N,N-dimethyl-benzenesulfonamide], for which the values for the IC50 in assay [1] and in assay [2] (setting [3]) were < 100 nM and 100 to 1000 nM, respectively.

In the case of `COc1ccccc1Nc1nc(Nc2ccc3c(c2)CCC(N2CCN(C)CC2)CC3)ncc1Cl` (stereo not drawn) [Example 891, 5-Chloro-N*4*-(2-methoxy-phenyl)-N*2*-[7-(4-methyl-piperazin-1-yl)-6,7,8,9-tetrahydro-5H-benzocyclohepten-2-yl]-pyrimidine-2,4-diamine], the figures for the 50% inhibitory concentration (IC50) in assay [1] and in assay [2] (setting [3]) were < 100 nM and 1000 to 10000 nM, respectively.

For the molecule `CN1CCN(C2CCc3ccc(Nc4ncc(Cl)c(N[C@H]5[C@@H](C(N)=O)[C@@H]6C=C[C@H]5C6)n4)cc3CC2)CC1` (stereo partly drawn) [Example 892, (1S,2S,3R,4R)-3-{5-Chloro-2-[7-(4-methyl-piperazin-1-yl)-6,7,8,9-tetrahydro-5H-benzocyclohepten-2-ylamino]-pyrimidin-4-ylamino}-bicyclo[2.2.1]hept-5-ene-2-carboxylic acid amide], the IC50 in assay [1] was < 100 nM; in assay [2] (setting [3]) it was 1000 to 10000 nM.

On to `COc1cc(N2CCOCC2)ccc1Nc1nc(Nc2ccc3c(c2OC)CCC(N2CCOCC2)CC3)ncc1Cl` (stereo not drawn) [Example 894, 5-Chloro-N*4*-(2-methoxy-4-morpholin-4-yl-phenyl)-N*2*-(1-methoxy-7-morpholin-4-yl-6,7,8,9-tetrahydro-5H-benzocyclohepten-2-yl)-pyrimidine-2,4-diamine], for which the IC50 was < 100 nM in assay [1] and > 10000 nM in assay [2] (setting [3]).

As for `COCCNC1CCc2cc(Nc3ncc(Cl)c(N[C@@H]4CCCC[C@H]4NS(C)(=O)=O)n3)c(OC)cc2CC1` (stereo partly drawn) [Example 895, N-((1R,2R)-2-{5-Chloro-2-[3-methoxy-7-(2-methoxy-ethylamino)-6,7,8,9-tetrahydro-5H-benzocyclohepten-2-ylamino]-pyrimidin-4-ylamino}-cyclohexyl)-methanesulfonamide], the IC50 in assay [1] is < 100 nM; in assay [2] (setting [3]), > 10000 nM.

Turning to `COCCNC1CCc2cc(Nc3ncc(Cl)c(N[C@@H]4CCCC[C@H]4NS(C)(=O)=O)n3)c(OC)cc2CC1` (stereo partly drawn) [Example 896, N-((1R,2R)-2-{5-Chloro-2-[3-methoxy-7-(2-methoxy-ethylamino)-6,7,8,9-tetrahydro-5H-benzocyclohepten-2-ylamino]-pyrimidin-4-ylamino}-cyclohexyl)-methanesulfonamide], the IC50 in assay [1] is < 100 nM; in assay [2] (setting [3]), > 10000 nM.

In the case of `COc1c(Nc2ncc(Cl)c(Nc3ccccc3S(=O)(=O)N3CCCC3)n2)ccc2c1CCC(N1CCOCC1)CC2` (stereo not drawn) [Example 900, 5-Chloro-N*2*-(1-methoxy-7-morpholin-4-yl-6,7,8,9-tetrahydro-5H-benzocyclohepten-2-yl)-N*4*-[2-(pyrrolidine-1-sulfonyl)-phenyl]-pyrimidine-2,4-diamine], the IC50 was < 100 nM in assay [1] and 1000 to 10000 nM in assay [2] (setting [3]).

Take `COc1c(Nc2ncc(Cl)c(Nc3ccccc3-n3cccn3)n2)ccc2c1CCC(N1CCOCC1)CC2` (stereo not drawn) [Example 901, 5-Chloro-N*2*-(1-methoxy-7-morpholin-4-yl-6,7,8,9-tetrahydro-5H-benzocyclohepten-2-yl)-N*4*-(2-pyrazol-1-yl-phenyl)-pyrimidine-2,4-diamine]: the IC50 was < 100 nM in assay [1] and 1000 to 10000 nM in assay [2] (setting [3]).

With `COc1c(Nc2ncc(Cl)c(N[C@H]3[C@@H](C(N)=O)[C@@H]4C=C[C@H]3C4)n2)ccc2c1CCC(N1CCCC(O)C1)CC2` (stereo partly drawn) [Example 909, (1S,2S,3R,4R)-3-{5-Chloro-2-[7-(3-hydroxy-piperidin-1-yl)-1-methoxy-6,7,8,9-tetrahydro-5H-benzocyclohepten-2-ylamino]-pyrimidin-4-ylamino}-bicyclo[2.2.1]hept-5-ene-2-carboxylic acid amide], the IC50 is < 100 nM in assay [1] and 1000 to 10000 nM in assay [2] (setting [3]).

In the case of `COc1c(Nc2ncc(Cl)c(N[C@H]3[C@@H](C(N)=O)[C@@H]4C=C[C@H]3C4)n2)ccc2c1CCC(N1CCCC(O)C1)CC2` (stereo partly drawn) [Example 910, (1S,2S,3R,4R)-3-{5-Chloro-2-[7-(3-hydroxy-piperidin-1-yl)-1-methoxy-6,7,8,9-tetrahydro-5H-benzocyclohepten-2-ylamino]-pyrimidin-4-ylamino}-bicyclo[2.2.1]hept-5-ene-2-carboxylic acid amide], the IC50 in assay [1] is < 100 nM; in assay [2] (setting [3]), > 10000 nM.

`COc1c(Nc2ncc(Cl)c(Nc3ccccc3S(=O)(=O)N(C)C)n2)ccc2c1CCC(N1CCN(C)CC1)CC2` (stereo not drawn) [Example 911, 2-{5-Chloro-2-[1-methoxy-7-(4-methyl-piperazin-1-yl)-6,7,8,9-tetrahydro-5H-benzocyclohepten-2-ylamino]-pyrimidin-4-ylamino}-N,N-dimethyl-benzenesulfonamide]: the figures for the 50% inhibitory concentration (IC50) in assay [1] and in assay [2] (setting [3]) were < 100 nM and 1000 to 10000 nM, respectively.
